Assay results published in BindingDB's records for doi:10.1021/jm034182u (Virginia Commonwealth University, 2004).
pIC50: −log10 of the molar value.

Target: E3 ubiquitin-protein ligase Mdm2 (Homo sapiens, UniProt Q00987)
Assay: ELISA-Based p53-MDM2 Binding Assay
Conditions: pH 7.6; 37 °C
Procedure: ELISA plates were coated with equivalent amounts of either glutathione S-transferase (GST) protein or GST-MDM2 (1-188) fusion protein and incubated on a microtiter plate shaker overnight at 4 deg C. After washing the wells five times with PBS containing 0.2 M NaCl, the plates were incubated at 37 deg C with blocking solution (PBS containing 5% nonfat dry milk) for 2 hours. After the plates were washed five times, the GST-p53 was added, and the plates were incubated for an additional 30 minutes at 37 deg C. After another washing step, the plates were incubated with the anti-p53 monoclonal pAb421 (Oncogene Science, Inc.) in blocking solution for 1 hour at 37 deg C. The plates were again washed five times and incubated for 1 hour at 37 deg C with a goat anti-mouse IgG alkaline phosphatase conjugate (Promega, Inc.). Excess antibody was removed with 15 washes, the wells were filled with PBS, and the absorbance at 405 nm was read to establish background readings for the wells. […] Finally, the A405 was measured with a microplate spectrophotometer (Molecular Devices, Inc.). […] Absorbance values were normalized by subtraction of equivalent GST-seeded well values from their GST-mdm2 (1-188)-seeded neighbors. IC50 values were determined by fitting data to a three-parameter sigmoidal dose-response function.

E3 ubiquitin-protein ligase Mdm2, sequence (Q00987 whole entry): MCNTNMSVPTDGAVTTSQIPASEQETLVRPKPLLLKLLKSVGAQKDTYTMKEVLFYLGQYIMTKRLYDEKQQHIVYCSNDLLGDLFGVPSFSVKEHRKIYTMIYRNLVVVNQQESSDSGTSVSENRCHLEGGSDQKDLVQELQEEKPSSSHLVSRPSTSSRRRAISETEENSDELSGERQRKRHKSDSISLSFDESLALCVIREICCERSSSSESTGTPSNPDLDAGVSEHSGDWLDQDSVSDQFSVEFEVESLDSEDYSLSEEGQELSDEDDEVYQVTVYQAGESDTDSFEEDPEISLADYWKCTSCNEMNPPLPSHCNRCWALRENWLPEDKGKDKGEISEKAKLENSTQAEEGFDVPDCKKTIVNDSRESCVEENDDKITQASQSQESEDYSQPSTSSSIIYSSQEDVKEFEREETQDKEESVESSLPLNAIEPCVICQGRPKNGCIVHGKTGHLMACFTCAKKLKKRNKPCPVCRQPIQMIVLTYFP

CC(C)Oc1ccc(C(=O)NS(=O)(=O)c2ccc(N=Nc3c(O)n(-c4ccccc4)n(-c4ccccc4)c3=O)cc2)cc1
pIC50: 4.50
